Experimental data taken from patent publication US20130237609A1, “CELLULOSE DERIVATIVES FOR ENHANCING BIOAVAILABILITY OF FLAVONOIDS” (priority 2011, published 2013).
≈ marks a conversion by molar mass, not a printed value. Like-named read-outs stand apart in the source and are kept apart here.

Assays:
[1] = Contact angle of water on spin-coated films; assay type: physicochemical; conditions: Cur/polymer weight ratio, PVP samples: initial value
[2] = Curcumin stability in pH 7.4 buffer, HPLC after EtOH dilution; assay type: physicochemical; conditions: 24 h, room temperature, EtOH dilution before measurement
Procedure: […]. Samples were incubated at room temperature for indicated times. After incubation, the reaction mixtures were diluted by 1 mL of ethanol and the UV-Vis absorption of the diluted solution was measured; then the diluted solution was filtered through a 1 μm PVDF membrane filter, and the filtrate was analyzed by HP LC. HPLC was performed with an Agilent 1200 series liquid chromatograph equipped with a 1200 quaternary pump, a variable wavelength UV/Vis detector and an Eclipse XDB-C18 column (150×4.6 mm, 5 μm particle size) using the mixture of 40% THF, 60% water and 1% acetic acid (pH 3.0) as mobile phase.
(Wang 1997). Such chemical degradation is likely the result of retro-aldol reactions. (Priyadarsini 2009). […] This experiment differs from the literature report in that the inventors use ethanol to dilute the incubated aqueous curcumin solution just prior to measurement, to make sure that any crystallized curcumin is re-dissolved for detection. […]

[3] = Curcumin stability in buffer, UV-Vis after EtOH dilution; assay type: physicochemical
[4] = Curcumin release profile, pH 6.8 buffer; assay type: physicochemical; conditions: pH 6.8, UV-Vis
[5] = Curcumin release profile, pH 1.2 buffer; assay type: physicochemical; conditions: polymer label = amorphous blend of curcumin with that polymer
[6] = cited from earlier work
[7] = formulated as nanocrystals, solid dispersion in HPMCAS, nanoemulsion (Onoue 2010); cited from earlier work
[8] = with piperine as metabolic inhibitor, in humans; cited from earlier work
[9] = pH 7.4 buffer; cited from earlier work
[10] = Curcumin stability in buffer (degradation plus crystallization), UV-Vis, no EtOH added; conditions: after 5 h, no EtOH dilution

Which “contact angle of water on film” value [1] does the source give for `COc1cc(/C=C/C(=O)CC(=O)/C=C/c2ccc(O)c(OC)c2)ccc1O` [Curcumin, 1,7-bis(4-hydroxy-3-methoxyphenyl)-1,6-heptadiene-3,5-dione] here?
The value was 102 °.

And the “curcumin degraded (HPLC, curcumin peak RT 6.0 min)” value [2]?
Its value is 36%.

What about the “Cur degraded (UV-Vis)” value ([3]; pH 6.8, after 5 h, EtOH dilution) of the same compound?
Its value is 7%.

And the “Cur degraded (UV-Vis)” value ([3]; pH 7.4, after 5 h, EtOH dilution)?
Its value is 16%.

What about the “Cur degraded (UV-Vis)” value ([3]; pH 7.4 buffer, 24 h, EtOH dilution before measurement) of the same compound?
Its value is 33%.

What about the “Cur release concentration” value [4] of the same compound?
The value was “below the UV/Vis detection limit”.

And the “dissolution” value [5]?
The value was “virtually no dissolution”.

And the Solubility [6]?
Its Solubility is 3 µg/mL (≈ 8.14 µM).

And the “improvement of oral bioavailability of curcumin” value [7]?
The value was 9-16 fold.

What about the “improvement of curcumin oral bioavailability” value [8] of the same compound?
The value was “up to 20 fold”.

What about the half-life of curcumin [9] of the same compound?
Its half-life of curcumin is 5.4 min.

What about the “curcumin remained in solution” value ([10]; pH 6.8 buffer) of the same compound?
The value was roughly 44%.

And the “curcumin remained in solution” value ([10]; pH 7.4 buffer)?
The value was “around 40%”.

Which Solubility (physchem; solubility of crystalline griseofulvin) does the source give for `COC1=CC(=O)C[C@@H](C)[C@]12Oc1c(Cl)c(OC)cc(OC)c1C2=O` [griseofulvin] here?
The Solubility was 12 µg/mL (≈ 34 µM).

And the Solubility (physchem; solubility of griseofulvin in the polymer matrix)?
Its Solubility is no more than 30000 µg/mL.

With `O=c1c(O)c(-c2ccc(O)c(O)c2)oc2cc(O)cc(O)c12` [Quercetin] as the compound, how does the Solubility [6] read?
Its Solubility is 0.4 µg/mL (≈ 1.32 µM).

Which Solubility [6] does the source give for `Oc1ccc(C=Cc2cc(O)cc(O)c2)cc1` [Resveratrol] here?
Its Solubility is less than 0.1 µg/mL.

For `O=c1oc2c(O)c(O)cc3c(=O)oc4c(O)c(O)cc1c4c23` [Ellagic Acid], which Solubility [6] is on record?
Its Solubility is 10 µg/mL (≈ 33.1 µM).
